Data as given in the kinase profiling compilation of Christmann-Franck et al. (2016).

What was measured:
Test in all cases: KINOMEscan competition binding
Details in all cases: compound 1.0 µM
SIK1 (human) = SIK1 (human) (UniProt P57059)
HIPK2 (human) = HIPK2 (human) (UniProt Q9H2X6)
PRKCE (human) = PRKCE (human) (UniProt Q02156)
STK36 (human) = STK36 (human) (UniProt Q9NRP7)
RPS6KA5 KD1 (human) = RPS6KA5 KD1 (human) (UniProt O75582)
ACVR2A (human) = ACVR2A (human) (UniProt P27037)
NEK7 (human) = NEK7 (human) (UniProt Q8TDX7)
MAST1 (human) = MAST1 (human) (UniProt Q9Y2H9)
SRPK3 (human) = SRPK3 (human) (UniProt Q9UPE1)
[1] = molecular target: JAK1 JH2 pseudokinase (human) (UniProt P23458)
BMX (human) = BMX (human) (UniProt P51813)
GSK3A (human) = GSK3A (human) (UniProt P49840)
MAP3K4 (human) = MAP3K4 (human) (UniProt Q9Y6R4)
PAK3 (human) = PAK3 (human) (UniProt O75914)
MAP3K1 (human) = MAP3K1 (human) (UniProt Q13233)
EPHB4 (human) = EPHB4 (human) (UniProt P54760)
SGK110 (human) = SGK110 (human) (UniProt P0C264)
CDK19 (human) = CDK19 (human) (UniProt Q9BWU1)
IKBKE (human) = IKBKE (human) (UniProt Q14164)
RIPK1 (human) = RIPK1 (human) (UniProt Q13546)
MAPK15 (human) = MAPK15 (human) (UniProt Q8TD08)
STK35 (human) = STK35 (human) (UniProt Q8TDR2)
[2] = test system: BRAF (human), P15056 [V600E]
STK17B (human) = STK17B (human) (UniProt O94768)
SLK (human) = SLK (human) (UniProt Q9H2G2)
MAK (human) = MAK (human) (UniProt P20794)
MAP3K5 (human) = MAP3K5 (human) (UniProt Q99683)
BRSK1 (human) = BRSK1 (human) (UniProt Q8TDC3)
CDK14 (human) = CDK14 (human) (UniProt O94921)
BLK (human) = BLK (human) (UniProt P51451)
TNK1 (human) = TNK1 (human) (UniProt Q13470)
YSK4 (human) = YSK4 (human) (UniProt Q56UN5)
CSNK1G2 (human) = CSNK1G2 (human) (UniProt P78368)
ROCK2 (human) = ROCK2 (human) (UniProt O75116)
[3] = test system: KIT (human), P10721 [V559D/T670I]
CDK11B (human) = CDK11B (human) (UniProt P21127)
SRPK2 (human) = SRPK2 (human) (UniProt P78362)
PIP4K2B (human) = PIP4K2B (human) (UniProt P78356)
CDC42BPB (human) = CDC42BPB (human) (UniProt Q9Y5S2)
LIMK2 (human) = LIMK2 (human) (UniProt P53671)

Chain of RPS6KA5 KD1 (human) (O75582 whole entry, looked up): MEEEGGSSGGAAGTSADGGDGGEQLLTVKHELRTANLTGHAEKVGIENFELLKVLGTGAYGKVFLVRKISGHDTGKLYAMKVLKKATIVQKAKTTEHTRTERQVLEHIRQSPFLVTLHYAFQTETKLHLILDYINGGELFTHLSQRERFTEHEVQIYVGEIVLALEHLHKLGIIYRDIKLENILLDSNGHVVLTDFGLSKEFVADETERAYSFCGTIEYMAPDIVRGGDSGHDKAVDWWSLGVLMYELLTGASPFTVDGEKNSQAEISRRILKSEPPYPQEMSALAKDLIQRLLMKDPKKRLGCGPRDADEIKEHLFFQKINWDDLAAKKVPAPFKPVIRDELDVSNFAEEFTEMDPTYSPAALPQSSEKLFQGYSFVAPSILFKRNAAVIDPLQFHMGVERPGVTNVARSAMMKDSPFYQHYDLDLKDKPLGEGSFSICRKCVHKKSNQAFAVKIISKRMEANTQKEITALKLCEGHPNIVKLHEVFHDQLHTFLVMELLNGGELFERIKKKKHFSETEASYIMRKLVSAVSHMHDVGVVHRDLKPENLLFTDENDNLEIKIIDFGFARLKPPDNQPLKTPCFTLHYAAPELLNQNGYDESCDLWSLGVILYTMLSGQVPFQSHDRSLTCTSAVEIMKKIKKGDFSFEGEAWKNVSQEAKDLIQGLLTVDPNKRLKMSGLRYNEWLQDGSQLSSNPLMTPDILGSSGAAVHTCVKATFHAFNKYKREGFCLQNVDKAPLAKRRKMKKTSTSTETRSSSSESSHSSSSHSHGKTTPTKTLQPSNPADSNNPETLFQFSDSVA
Chain of MAPK15 (human) (Q8TD08 whole entry, looked up): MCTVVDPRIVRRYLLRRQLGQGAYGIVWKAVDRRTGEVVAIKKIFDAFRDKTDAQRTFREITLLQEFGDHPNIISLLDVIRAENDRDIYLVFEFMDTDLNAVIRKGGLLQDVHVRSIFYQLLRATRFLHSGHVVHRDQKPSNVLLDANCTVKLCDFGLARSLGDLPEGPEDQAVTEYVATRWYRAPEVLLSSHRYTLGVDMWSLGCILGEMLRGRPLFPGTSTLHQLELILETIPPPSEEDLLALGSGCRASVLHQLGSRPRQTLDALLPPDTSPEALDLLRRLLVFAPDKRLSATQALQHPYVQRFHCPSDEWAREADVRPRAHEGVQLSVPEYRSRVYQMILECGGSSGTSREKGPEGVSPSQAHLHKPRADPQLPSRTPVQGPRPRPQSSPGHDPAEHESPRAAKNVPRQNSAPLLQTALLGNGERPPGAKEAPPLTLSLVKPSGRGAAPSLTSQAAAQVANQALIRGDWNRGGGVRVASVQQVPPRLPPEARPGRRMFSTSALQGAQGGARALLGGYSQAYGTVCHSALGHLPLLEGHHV
Chain of SRPK2 (human) (P78362 whole entry, looked up): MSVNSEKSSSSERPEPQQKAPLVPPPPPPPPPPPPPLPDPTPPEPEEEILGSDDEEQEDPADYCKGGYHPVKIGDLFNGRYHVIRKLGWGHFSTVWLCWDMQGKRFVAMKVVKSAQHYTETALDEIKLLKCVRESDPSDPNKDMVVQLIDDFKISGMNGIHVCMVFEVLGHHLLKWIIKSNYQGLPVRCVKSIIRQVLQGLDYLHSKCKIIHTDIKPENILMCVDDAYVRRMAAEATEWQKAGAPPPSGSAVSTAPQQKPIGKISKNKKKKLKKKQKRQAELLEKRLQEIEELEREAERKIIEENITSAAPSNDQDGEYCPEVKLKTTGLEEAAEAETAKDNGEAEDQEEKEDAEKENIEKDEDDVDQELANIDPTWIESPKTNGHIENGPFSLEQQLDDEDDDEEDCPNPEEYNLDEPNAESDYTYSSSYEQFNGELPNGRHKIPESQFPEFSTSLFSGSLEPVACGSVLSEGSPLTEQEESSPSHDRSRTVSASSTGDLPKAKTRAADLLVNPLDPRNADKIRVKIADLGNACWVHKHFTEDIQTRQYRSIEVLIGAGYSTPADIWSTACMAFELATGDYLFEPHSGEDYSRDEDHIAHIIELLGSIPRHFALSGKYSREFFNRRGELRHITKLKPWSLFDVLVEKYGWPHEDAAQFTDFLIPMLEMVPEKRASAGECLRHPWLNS
Chain of PAK3 (human) (O75914 whole entry, looked up): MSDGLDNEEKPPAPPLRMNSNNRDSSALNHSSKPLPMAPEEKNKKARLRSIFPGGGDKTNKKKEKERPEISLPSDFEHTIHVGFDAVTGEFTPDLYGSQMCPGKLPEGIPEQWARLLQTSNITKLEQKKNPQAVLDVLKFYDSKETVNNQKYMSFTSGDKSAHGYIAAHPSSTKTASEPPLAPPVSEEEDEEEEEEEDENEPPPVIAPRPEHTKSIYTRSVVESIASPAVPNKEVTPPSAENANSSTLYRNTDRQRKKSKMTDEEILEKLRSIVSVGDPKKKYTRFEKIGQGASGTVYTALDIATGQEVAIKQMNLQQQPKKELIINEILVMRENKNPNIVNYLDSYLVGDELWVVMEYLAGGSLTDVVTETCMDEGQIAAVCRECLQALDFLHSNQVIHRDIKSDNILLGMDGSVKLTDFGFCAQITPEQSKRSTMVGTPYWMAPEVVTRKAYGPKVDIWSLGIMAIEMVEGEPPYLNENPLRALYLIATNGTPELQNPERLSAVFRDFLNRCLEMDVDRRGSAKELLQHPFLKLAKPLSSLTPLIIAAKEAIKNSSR
Chain of ACVR2A (human) (P27037 whole entry, looked up): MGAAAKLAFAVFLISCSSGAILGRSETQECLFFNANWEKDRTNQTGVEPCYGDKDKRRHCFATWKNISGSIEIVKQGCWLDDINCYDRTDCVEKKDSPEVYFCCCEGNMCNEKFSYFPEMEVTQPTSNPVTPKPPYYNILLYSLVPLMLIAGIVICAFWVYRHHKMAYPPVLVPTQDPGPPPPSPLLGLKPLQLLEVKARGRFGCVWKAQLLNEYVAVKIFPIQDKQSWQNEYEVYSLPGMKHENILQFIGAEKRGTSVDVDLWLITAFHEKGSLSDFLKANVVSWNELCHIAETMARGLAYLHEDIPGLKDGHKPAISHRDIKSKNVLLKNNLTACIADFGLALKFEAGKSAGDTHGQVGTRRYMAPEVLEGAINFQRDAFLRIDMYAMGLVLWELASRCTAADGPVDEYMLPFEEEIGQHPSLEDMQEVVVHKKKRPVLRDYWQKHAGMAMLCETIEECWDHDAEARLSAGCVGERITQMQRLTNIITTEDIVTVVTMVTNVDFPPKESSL
Chain of SRPK3 (human) (Q9UPE1 whole entry, looked up): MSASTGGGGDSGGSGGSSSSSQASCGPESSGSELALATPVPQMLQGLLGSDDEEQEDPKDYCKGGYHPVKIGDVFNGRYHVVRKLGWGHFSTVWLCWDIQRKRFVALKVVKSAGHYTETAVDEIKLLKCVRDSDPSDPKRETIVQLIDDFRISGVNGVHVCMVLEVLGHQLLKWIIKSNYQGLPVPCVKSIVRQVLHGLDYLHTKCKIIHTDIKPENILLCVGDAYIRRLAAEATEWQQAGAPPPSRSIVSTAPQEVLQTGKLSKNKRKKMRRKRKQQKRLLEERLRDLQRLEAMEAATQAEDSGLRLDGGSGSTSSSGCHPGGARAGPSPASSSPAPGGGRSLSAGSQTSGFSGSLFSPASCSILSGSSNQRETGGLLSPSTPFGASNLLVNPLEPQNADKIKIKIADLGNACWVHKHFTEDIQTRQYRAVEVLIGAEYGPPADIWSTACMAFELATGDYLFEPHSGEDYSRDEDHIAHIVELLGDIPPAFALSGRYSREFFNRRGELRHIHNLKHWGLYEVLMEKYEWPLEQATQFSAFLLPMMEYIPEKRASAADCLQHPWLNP
Chain of HIPK2 (human) (Q9H2X6 whole entry, looked up): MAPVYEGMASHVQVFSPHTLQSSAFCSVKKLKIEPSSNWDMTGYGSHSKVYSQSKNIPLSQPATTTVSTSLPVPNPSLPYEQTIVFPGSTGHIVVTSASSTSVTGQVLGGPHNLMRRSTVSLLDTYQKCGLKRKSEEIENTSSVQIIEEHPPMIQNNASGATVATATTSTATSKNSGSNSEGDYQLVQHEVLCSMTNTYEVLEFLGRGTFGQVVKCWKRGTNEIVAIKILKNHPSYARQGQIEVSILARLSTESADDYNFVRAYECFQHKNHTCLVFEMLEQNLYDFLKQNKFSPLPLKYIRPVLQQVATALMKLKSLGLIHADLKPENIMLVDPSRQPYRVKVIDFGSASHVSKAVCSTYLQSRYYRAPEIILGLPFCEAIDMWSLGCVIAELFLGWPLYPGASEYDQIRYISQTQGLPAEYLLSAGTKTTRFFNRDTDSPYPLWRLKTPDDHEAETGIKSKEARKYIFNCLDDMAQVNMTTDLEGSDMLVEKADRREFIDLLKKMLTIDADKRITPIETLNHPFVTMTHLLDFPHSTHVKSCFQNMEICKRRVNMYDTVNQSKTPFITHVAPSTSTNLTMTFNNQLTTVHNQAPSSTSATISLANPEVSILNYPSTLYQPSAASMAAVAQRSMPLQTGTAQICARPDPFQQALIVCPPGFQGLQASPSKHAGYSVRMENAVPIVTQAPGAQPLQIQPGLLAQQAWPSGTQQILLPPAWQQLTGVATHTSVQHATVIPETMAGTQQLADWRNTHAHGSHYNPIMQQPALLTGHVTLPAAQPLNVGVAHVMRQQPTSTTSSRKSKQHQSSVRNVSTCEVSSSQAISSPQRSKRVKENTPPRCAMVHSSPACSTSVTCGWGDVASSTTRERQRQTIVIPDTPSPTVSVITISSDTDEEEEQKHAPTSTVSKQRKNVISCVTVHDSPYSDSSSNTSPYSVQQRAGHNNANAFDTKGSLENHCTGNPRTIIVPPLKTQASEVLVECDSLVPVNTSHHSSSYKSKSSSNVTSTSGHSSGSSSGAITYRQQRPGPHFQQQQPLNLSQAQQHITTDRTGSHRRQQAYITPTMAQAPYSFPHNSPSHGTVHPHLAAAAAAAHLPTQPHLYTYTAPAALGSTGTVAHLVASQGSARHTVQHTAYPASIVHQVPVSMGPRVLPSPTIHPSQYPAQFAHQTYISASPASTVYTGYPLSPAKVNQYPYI

Nc1cc(C(F)(F)F)c(-c2cc(N3CCOCC3)nc(N3CCOCC3)n2)cn1
inhibition of binding (SIK1 (human)): 0%
inhibition of binding (HIPK2 (human)): 0%
inhibition of binding (PRKCE (human)): 0%
inhibition of binding (STK36 (human)): 0%
inhibition of binding (RPS6KA5 KD1 (human)): 0%
inhibition of binding (ACVR2A (human)): 5%
inhibition of binding (NEK7 (human)): 0%
inhibition of binding (MAST1 (human)): 0%
inhibition of binding (SRPK3 (human)): 0%
inhibition of binding [1]: 0%
inhibition of binding (BMX (human)): 14%
inhibition of binding (GSK3A (human)): 42%
inhibition of binding (MAP3K4 (human)): 1%
inhibition of binding (PAK3 (human)): 0%
inhibition of binding (MAP3K1 (human)): 0%
inhibition of binding (EPHB4 (human)): 4%
inhibition of binding (SGK110 (human)): 3%
inhibition of binding (CDK19 (human)): 0%
inhibition of binding (IKBKE (human)): 0%
inhibition of binding (RIPK1 (human)): 0%
inhibition of binding (MAPK15 (human)): 2%
inhibition of binding (STK35 (human)): 0%
inhibition of binding [2]: 17%
inhibition of binding (STK17B (human)): 0%
inhibition of binding (SLK (human)): 0%
inhibition of binding (MAK (human)): 0%
inhibition of binding (MAP3K5 (human)): 1%
inhibition of binding (BRSK1 (human)): 0%
inhibition of binding (CDK14 (human)): 27%
inhibition of binding (BLK (human)): 0%
inhibition of binding (TNK1 (human)): 10%
inhibition of binding (YSK4 (human)): 21%
inhibition of binding (CSNK1G2 (human)): 0%
inhibition of binding (ROCK2 (human)): 0%
inhibition of binding [3]: 0%
inhibition of binding (CDK11B (human)): 10%
inhibition of binding (SRPK2 (human)): 27%
inhibition of binding (PIP4K2B (human)): 0%
inhibition of binding (CDC42BPB (human)): 0%
inhibition of binding (LIMK2 (human)): 0%
